Measured values taken from patent publication US7361668B2 (priority 2001, dated 2008).

Test system: muscarinic
Settings: cited from earlier work

Q: With `OC(C#CC1CN2CCC1CC2)(c1ccccc1)c1ccccc1` (stereo not drawn) [Alpha-(1-azabicyclo[2.2.2]oct-3-ylethynyl)-alpha-phenyl benzenemethanol] as the compound, how does the muscarinic anticholinergic activity read?
A: marked muscarinic anticholinergic activity

Biological target: T1, human recombinant m3 receptor (Homo sapiens, UniProt P20309)
T1 construct: expressed in transfected cells; host or cells: CHO cells (membrane preparation)
Assay type: binding
Settings: not given

T1 sequence (P20309 whole entry): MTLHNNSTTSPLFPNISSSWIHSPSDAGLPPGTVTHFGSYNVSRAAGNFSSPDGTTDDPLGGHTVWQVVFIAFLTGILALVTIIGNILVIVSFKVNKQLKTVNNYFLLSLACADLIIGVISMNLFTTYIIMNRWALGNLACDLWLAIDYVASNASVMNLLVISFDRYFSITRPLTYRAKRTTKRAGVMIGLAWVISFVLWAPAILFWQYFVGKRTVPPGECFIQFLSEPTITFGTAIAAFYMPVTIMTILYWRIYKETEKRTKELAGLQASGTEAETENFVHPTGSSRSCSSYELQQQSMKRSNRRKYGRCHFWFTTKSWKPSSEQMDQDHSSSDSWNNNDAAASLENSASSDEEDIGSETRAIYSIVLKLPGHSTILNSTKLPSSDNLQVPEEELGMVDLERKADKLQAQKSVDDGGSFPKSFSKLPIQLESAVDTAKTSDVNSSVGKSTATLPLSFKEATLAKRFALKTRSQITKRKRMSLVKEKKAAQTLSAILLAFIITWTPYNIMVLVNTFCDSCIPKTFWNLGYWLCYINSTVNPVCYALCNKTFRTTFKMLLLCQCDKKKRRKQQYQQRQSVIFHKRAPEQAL

Q: For `CO[C@]1(C#CC(O)(c2cccnc2F)C2CCCCCC2)CN2CCC1CC2` (stereo partly drawn) [Compound 124, 1-cycloheptyl-1-(2-fluoro-3-pyridinyl)-3-[(3R)-3-methoxy-1-azabicyclo[2.2.2]oct-3-yl]-2-propyn-1-ol], which “affinity (in words)” value is on record?
A: High affinities

Q: With `COC1(C#CC(C#N)(c2ccccc2)c2ccccc2)CN2CCC1CC2` (racemic) [Compound 64, 4-(3-methoxy-1-azabicyclo[2.2.2]oct-3-yl)-2,2-diphenyl-3-butynenitrile] as the compound, how does the “affinity (in words)” value read?
A: High affinities

Q: With `CO[C@]1(C#CC(O)(c2ccccn2)c2ccc(Cl)s2)CN2CCC1CC2` (stereo partly drawn) [Compound 190, 1-(5-chloro-2-thienyl)-3-[(3R)-3-methoxy-1-azabicyclo[2.2.2]oct-3-yl]-1-(2-pyridinyl)-2-propyn-1-ol] as the compound, how does the “affinity (in words)” value read?
A: High affinities

Q: Which “affinity (in words)” value does the source give for `CO[C@]1(C#CC(O)(c2ccc(F)cc2)c2ccc(F)nc2)CN2CCC1CC2` (stereo partly drawn) [Compound 139, 1-(4-fluorophenyl)-1-(6-fluoro-3-pyridinyl)-3-[(3R)-3-methoxy-1-azabicyclo[2.2.2]oct-3-yl]-2-propyn-1-ol] here?
A: High affinities

Q: Which “affinity (in words)” value does the source give for `CO[C@]1(C#CC(O)(CC(C)(C)C)c2cccs2)CN2CCC1CC2` (stereo partly drawn) [Compound 185, 1-[(3R)-3-methoxy-1-azabicyclo[2.2.2]oct-3-yl]-5,5-dimethyl-3-(2-thienyl)-1-hexyn-3-ol] here?
A: High affinities

Q: For `CO[C@]1(C#CC(O)(c2ccccc2)C2CCC=CCC2)CN2CCC1CC2` (stereo partly drawn) [Compound 126, 1-(4-cyclohepten-1-yl)-3-[(3R)-3-methoxy-1-azabicyclo[2.2.2]oct-3-yl]-1-phenyl-2-propyn-1-ol], which “affinity (in words)” value is on record?
A: High affinities

Q: For `CCC(CC)C(O)(C#C[C@@]1(OC)CN2CCC1CC2)c1ccccc1` (stereo partly drawn) [Compound 168, 4-ethyl-1-[(3R)-3-methoxy-1-azabicyclo[2.2.2]oct-3-yl]-3-phenyl-1-hexyn-3-ol], which “affinity (in words)” value is on record?
A: High affinities

Q: For `CO[C@]1(C#C[C@](O)(c2ccccc2)C2CCCCCC2)C[N+]2(C)CCC1CC2.[I-]` [Compound 119, (3R)-3-[(3R)-3-cycloheptyl-3-hydroxy-3-phenyl-1-propynyl]-3-methoxy-1-methyl-1-azoniabicyclo[2.2.2]octane iodide], which “affinity (in words)” value is on record?
A: High affinities

Q: Which “affinity (in words)” value does the source give for `CO[C@]1(C#C[C@@](O)(c2ccccc2)C2CCCCCC2)CN2CCC1CC2` [Compound 118, (1S)-1-cycloheptyl-3-[(3R)-3-methoxy-1-azabicyclo[2.2.2]oct-3-yl]-1-phenyl-2-propyn-1-ol] here?
A: High affinities

Q: Which “affinity (in words)” value does the source give for `CO[C@]1(C#CC(O)(CC2CCCC2)c2cccs2)CN2CCC1CC2` (stereo partly drawn) [Compound 188, 1-cyclopentyl-4-[(3R)-3-methoxy-1-azabicyclo[2.2.2]oct-3-yl]-2-(2-thienyl)-3-butyn-2-ol] here?
A: High affinities

Q: With `CO[C@]1(C#CC(O)(c2ccccc2)C2CCCCCCC2)CN2CCC1CC2` (stereo partly drawn) [Compound 91, 1-cyclooctyl-3-[(3R)-3-methoxy-1-azabicyclo[2.2.2]oct-3-yl]-1-phenyl-2-propyn-1-ol] as the compound, how does the “affinity (in words)” value read?
A: High affinities

Q: Which “affinity (in words)” value does the source give for `CO[C@]1(C#CC(O)(c2ccccc2)C2CCSCC2)CN2CCC1CC2` (stereo partly drawn) [Compound 174, 3-[(3R)-3-methoxy-1-azabicyclo[2.2.2]oct-3-yl]-1-phenyl-1-tetrahydro-2H-thiopyran-4-yl-2-propyn-1-ol] here?
A: High affinities

Q: Which “affinity (in words)” value does the source give for `CO[C@]1(C#CC(O)(c2cccnc2)C2CCCCCC2)CN2CCC1CC2` (stereo partly drawn) [Compound 122, 1-cycloheptyl-3-[(3R)-3-methoxy-1-azabicyclo[2.2.2]oct-3-yl]-1-(3-pyridinyl)-2-propyn-1-ol] here?
A: High affinities

Q: Which “affinity (in words)” value does the source give for `OC(C#CC1(F)CN2CCC1CC2)(c1ccccc1)C1CCCCC1` (stereo not drawn) [Compound 111, 1-cyclohexyl-3-(3-fluoro-1-azabicyclo[2.2.2]oct-3-yl)-1-phenylprop-2-yn-1-ol] here?
A: High affinities

Q: Which “affinity (in words)” value does the source give for `CO[C@]1(C#CC(O)(c2ccccc2)C2CCSCC2)CN2CCC1CC2` (stereo partly drawn) [Compound 173, 3-[(3R)-3-methoxy-1-azabicyclo[2.2.2]oct-3-yl]-1-phenyl-1-tetrahydro-2H-thiopyran-4-yl-2-propyn-1-ol] here?
A: High affinities

Q: Which “affinity (in words)” value does the source give for `CO[C@]1(C#CC(O)(c2ccccc2)c2ccc3c(c2)CCC3)CN2CCC1CC2` (stereo partly drawn) [Compound 80, 1-(2,3-dihydro-1H-inden-5-yl)-3-[(3R)-3-methoxy-1-azabicyclo[2.2.2]oct-3-yl]-1-phenyl-2-propyn-1-ol] here?
A: High affinities

Q: For `COC1(C#CC(O)(c2ccccc2)C2CC3C=CC2C3)CN2CCC1CC2` (stereo not drawn) [Compound 166, 1-bicyclo[2.2.1]hept-5-en-2-yl-3-(3-methoxy-1-azabicyclo[2.2.2]oct-3-yl)-1-phenyl-2-propyn-1-ol], which “affinity (in words)” value is on record?
A: High affinities

Q: For `CO[C@]1(C#CC(O)(c2ccccc2)C2CSCCSC2)CN2CCC1CC2` (stereo partly drawn) [Compound 172, 1-(1,4-dithiepan-6-yl)-3-[(3R)-3-methoxy-1-azabicyclo[2.2.2]oct-3-yl]-1-phenyl-2-propyn-1-ol], which “affinity (in words)” value is on record?
A: High affinities

Q: For `CO[C@]1(C#CC(F)(c2ccccc2)C2CCCCC2)CN2CCC1CC2` (stereo partly drawn) [Compound 113, (3R)-3-(3-cyclohexyl-3-fluoro-3-phenyl-1-propynyl)-3-methoxy-1-azabicyclo[2.2.2]octane], which “affinity (in words)” value is on record?
A: High affinities

Q: For `CO[C@]1(C#CC(O)(c2ccccc2)C2CCCCCCC2)CN2CCC1CC2` (stereo partly drawn) [Compound 89, 1-cyclooctyl-3-[(3R)-3-methoxy-1-azabicyclo[2.2.2]oct-3-yl]-1-phenyl-2-propyn-1-ol], which “affinity (in words)” value is on record?
A: High affinities

Q: Which “affinity (in words)” value does the source give for `CO[C@]1(C#CC(O)(c2ccccc2)C2CC3CCC(C3)C2)CN2CCC1CC2` (stereo partly drawn) [Compound 176, 1-bicyclo[3.2.1]oct-3-yl-3-[(3R)-3-methoxy-1-azabicyclo[2.2.2]oct-3-yl]-1-phenyl-2-propyn-1-ol] here?
A: High affinities

Q: For `CO[C@]1(C#CC(O)(c2ccc(F)cc2)c2cccnc2F)CN2CCC1CC2` (stereo partly drawn) [Compound 141, 1-(4-fluorophenyl)-1-(2-fluoro-3-pyridinyl)-3-[(3R)-3-methoxy-1-azabicyclo[2.2.2]oct-3-yl]-2-propyn-1-ol], which “affinity (in words)” value is on record?
A: High affinities

Q: For `C=CCCC(O)(C#C[C@@]1(OC)CN2CCC1CC2)c1ccccc1` (stereo partly drawn) [Compound 169, 1-[(3R)-3-methoxy-1-azabicyclo[2.2.2]oct-3-yl]-3-phenyl-6-hepten-1-yn-3-ol], which “affinity (in words)” value is on record?
A: High affinities

Q: Which “affinity (in words)” value does the source give for `CO[C@]1(C#CC(O)(c2ccccc2)C23CC4CC(CC(C4)C2)C3)CN2CCC1CC2` (stereo partly drawn) [Compound 162, 1-(1-adamantyl)-3-[(3R)-3-methoxy-1-azabicyclo[2.2.2]oct-3-yl]-1-phenyl-2-propyn-1-ol] here?
A: High affinities

Q: Which “affinity (in words)” value does the source give for `CO[C@]1(C#CC(O)(c2cccs2)C2CCCCC2)CN2CCC1CC2` (stereo partly drawn) [Compound 115, 1-cyclohexyl-3-[(3R)-3-methoxy-1-azabicyclo[2.2.2]oct-3-yl]-1-(2-thienyl)-2-propyn-1-ol] here?
A: High affinities

Q: With `CO[C@]1(C#CC(O)(c2ccccc2)C2CC3CCC(C2)S3)CN2CCC1CC2` (stereo partly drawn) [Compound 177, 3-[(3R)-3-methoxy-1-azabicyclo[2.2.2]oct-3-yl]-1-phenyl-1-(8-thiabicyclo[3.2.1]oct-3-yl)-2-propyn-1-ol] as the compound, how does the “affinity (in words)” value read?
A: High affinities

Q: With `CO[C@]1(C#CC(O)(c2ccccc2)C2CCCCCCC2)CN2CCC1CC2` (stereo partly drawn) [Compound 90, 1-cyclooctyl-3-[(3R)-3-methoxy-1-azabicyclo[2.2.2]oct-3-yl]-1-phenyl-2-propyn-1-ol] as the compound, how does the “affinity (in words)” value read?
A: High affinities

Q: With `CO[C@]1(C#C[C@](O)(c2ccccc2)C2CCCCCC2)CN2CCC1CC2` [Compound 117, (1R)-1-cycloheptyl-3-[(3R)-3-methoxy-1-azabicyclo[2.2.2]oct-3-yl]-1-phenyl-2-propyn-1-ol] as the compound, how does the “affinity (in words)” value read?
A: High affinities

Q: With `CO[C@]1(C#CC(O)(c2cccs2)C2CCCCCC2)CN2CCC1CC2` (stereo partly drawn) [Compound 123, 1-cycloheptyl-3-[(3R)-3-methoxy-1-azabicyclo[2.2.2]oct-3-yl]-1-(2-thienyl)-2-propyn-1-ol] as the compound, how does the “affinity (in words)” value read?
A: High affinities

Q: For `CO[C@]1(C#CC(O)(c2ccccc2)c2cccc(C)c2)CN2CCC1CC2` (stereo partly drawn) [Compound 72, 3-[(3R)-3-methoxy-1-azabicyclo[2.2.2]oct-3-yl]-1-(3-methylphenyl)-1-phenylprop-2-yn-1-ol], which “affinity (in words)” value is on record?
A: High affinities

Q: For `CO[C@]1(C#CC(O)(c2ccccc2)C2CCCCCC2)CN2CCC1CC2` (stereo partly drawn) [Compound 116, 1-cycloheptyl-3-[(3R)-3-methoxy-1-azabicyclo[2.2.2]oct-3-yl]-1-phenyl-2-propyn-1-ol], which “affinity (in words)” value is on record?
A: High affinities

Q: With `CO[C@]1(C#CC(O)(c2cccs2)c2cccs2)C[N+]2(C)CCC1CC2.[I-]` [Compound 155, (3R)-3-[3-hydroxy-3,3-di(2-thienyl)-1-propynyl]-3-methoxy-1-methyl-1-azoniabicyclo[2.2.2]octane iodide] as the compound, how does the “affinity (in words)” value read?
A: High affinities
